Experimental data reported in patent publication US8697705B2, “Isoindolinone derivatives” (Hoffmann-La Roche Inc., priority 2011, dated 2014).

Tests used:
[1] = biological target: T1, Recombinant human liver GK1 (GST-GK) (Homo sapiens, UniProt P35557); test: Glucokinase in vitro assay (G6PDH-coupled, NADH generation, OD340); assay type: biochemical; conditions: 30° C., 5 mM D-glucose, 10% dimethylsulfoxide
T1 construct: made in house; host or cells: E. coli
T1 sequence (P35557 1-466 isoform P35557-2): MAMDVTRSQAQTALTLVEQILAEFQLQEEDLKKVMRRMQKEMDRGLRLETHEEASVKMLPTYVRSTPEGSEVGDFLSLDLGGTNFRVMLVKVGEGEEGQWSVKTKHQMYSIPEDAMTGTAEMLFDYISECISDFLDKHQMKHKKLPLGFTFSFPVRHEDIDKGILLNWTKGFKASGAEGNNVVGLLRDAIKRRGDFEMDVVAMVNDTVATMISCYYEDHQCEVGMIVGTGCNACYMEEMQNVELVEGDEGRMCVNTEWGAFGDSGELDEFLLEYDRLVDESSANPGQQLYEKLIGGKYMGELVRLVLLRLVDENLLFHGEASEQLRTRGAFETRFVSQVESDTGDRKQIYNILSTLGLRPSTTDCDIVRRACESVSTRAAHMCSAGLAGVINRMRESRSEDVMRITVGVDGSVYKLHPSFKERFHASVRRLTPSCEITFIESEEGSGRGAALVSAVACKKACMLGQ
Experimental: Glucokinase In Vitro Assay Protocol:
Glucokinase (GK) was assayed by coupling the production of glucose-6-phosphate to the generation of NADH with glucose-6-phosphate dehydrogenase (G6PDH, 0.75-1 kunits/mg; Boehringer Mannheim, Indianapolis, Ind.) from Leuconostoc mesenteroides as the coupling enzyme (Scheme 2).
Recombinant human liver GK1 was expressed in E. coli as a glutathione S-transferase fusion protein (GST-GK) and was purified by chromatography over a glutathione-Sepharose 4B affinity column using the procedure provided by the manufacturer (Amersham Pharmacia Biotech, Piscataway, N.J.).
The assay was conducted at 30° C. in a flat bottom 96-well tissue culture plate from Costar (Cambridge, Mass.) with a final incubation volume of 120 μL. The incubation reaction contained the following: 25 mM Hepes buffer (pH 7.1), 25 mM KCl, 5 mM D-glucose, 1 mM ATP, 1.8 mM NAD, 2 mM MgCl2, 1 μM sorbitol-6-phosphate, 1 mM dithiothreitol, test drug or 10% dimethylsulfoxide, ˜7 units/ml G6PDH, and GK (see below). All organic reagents were >98% pure and were from Boehringer Mannheim with the exceptions of D-glucose and Hepes which were from Sigma Chemical Co, St Louis, Mo. Test compounds were dissolved in dimethylsulfoxide and were added to the incubation reaction minus GST-GK in a volume of 12 μL to yield a final dimethylsulfoxide concentration of 10%. This mix was pre-incubated in the temperature controlled chamber of a SPECTRAmax 250 microplate spectrophotometer (Molecular Devices Corporation, Sunnyvale, Calif.) for 10 minutes to allow temperature equilibrium and then the reaction was started by the addition of 20 μL GST-GK.
After addition of enzyme, the increase in optical density (OD) at 340 nm was monitored spectrophotometrically to determine the rate of change (OD340 per min). The GK activity (OD340/min) in control wells (10% dimethylsulfoxide minus GK activators) was compared with the activity in wells containing test GK activators, and the concentration of activator that produced a 50% increase in the activity of GK, i.e., the SC1.5, was calculated.

C57BL/6J mice = test: Glucokinase activator in vivo screen: blood glucose lowering after oral gavage in mice; conditions: Mus musculus, C57B6 mice, read-out: % gluc lowering @ 2 H; for change in vivo at 25 mg/kg: vs. control at 2 hours post 25 mg/kg oral dose
Experimental: Glucokinase Activator In Vivo Screen Protocol in Lean Mice:
Lean C57BL/6J mice were orally dosed via gavage with Glucokinase (GK) activator following a two hour fasting period. Blood glucose determinations were made at various (e.g. 0, 1, 2, 4 and 8 hours post-oral gavage) times during the study.
C57Bl/6J mice were obtained from Jackson Laboratory (Bar Harbor, Me.) and were maintained in a light-dark cycle with lights on from 0600-1800 hr. For studies in lean mice, the mice were received at age ten weeks and given ad libitum access to control diet (LabDiet 5001 chow, PMI Nutrition, Brentwood, Mo.), and were at least age 11 weeks at the time of study. For studies in the DIO model, the mice were received at age five weeks and given ad libitum access to Bio-Sery F3282 High Fat Diet (Frenchtown, N.J.), and were at least age 16 weeks at the time of study. The experiments were conducted during the light phase of the light-dark cycle. Mice (n=6) are weighed and fasted for a two hour period prior to oral treatment. GK activators are formulated in Gelucire vehicle (Ethanol:Gelucire44/14:PEG400q.s. 4:66:30 v/w/v). For studies in lean mice, the mice were dosed orally with 5.0 μL per gram of body weight (i.e. 5 ml/kg×10.0 mg/ml formulation to equal a 50 mg/kg dose). For studies in DIO mice, the mice were dosed orally with 5.0 μL per gram of body weight (i.e. 5.0 ml/kg×5 mg/ml formulation to equal a 25 mg/kg dose). Immediately prior to dosing, a pre-dose (time zero) blood glucose reading was acquired by snipping off a small portion of the animal's tail and collecting 15 μL blood into a heparinized capillary tube for analysis. Following GK activator administration, additional blood glucose readings were taken at various time points post dose from the same tail wound. Results were interpreted by comparing the mean blood glucose values of vehicle treated mice with GK activator treated mice over the study period.
Table 2 below provides data for % glucose lowering of a representative number of compounds of the present invention vs. control at 2 hours post 25 or 50 mg/kg dose in C57B6 mice: […]

| Structure (SMILES) | SC1.5 (concentration of activator that produced a 50% increase in the activity of GK) [1] | change in vivo at 25 mg/kg (C57BL/6J mice) | change in vivo at 50 mg/kg (C57BL/6J mice; vs. control at 2 hours post 50 mg/kg oral dose) |
| --- | --- | --- | --- |
| O=C(O)Cn1ccc(NC(=O)[C@H](CC2CCCC2)N2Cc3c(cccc3C(F)(F)F)C2=O)n1 [Example 4, {3-[(S)-3-Cyclopentyl-2-(1-oxo-4-trifluoromethyl-1,3-dihydro-isoindol-2-yl)-propionylamino]-pyrazol-1-yl}-acetic acid] | 0.439 µM |  |  |
| COC(C)(C)Cn1ccc(NC(=O)[C@H](CC2CCCC2)N2Cc3ccccc3C2=O)n1 [Example 14, (S)-3-Cyclopentyl-N-[1-(2-methoxy-2-methyl-propyl)-1H-pyrazol-3-yl]-2-(1-oxo-1,3-dihydro-isoindol-2-yl)-propionamide] | 1.242 µM |  |  |
| O=C(Nc1ccn(C[C@@H](O)CO)n1)[C@H](CC1CCCC1)N1Cc2c(cccc2C(F)(F)F)C1=O [Example 5, (S)-3-Cyclopentyl-N-[1-((R)-2,3-dihydroxy-propyl)-1H-pyrazol-3-yl]-2-(1-oxo-4-trifluoromethyl-1,3-dihydro-isoindol-2-yl)-propionamide] | 0.074 µM | -50.1% |  |
| CC(C)(C)OC(=O)Cn1ccc(NC(=O)[C@H](CC2CCCC2)N2Cc3c(cccc3C(F)(F)F)C2=O)n1 [Example 3, {3-[(S)-3-Cyclopentyl-2-(1-oxo-4-trifluoromethyl-1,3-dihydro-isoindol-2-yl)-propionylamino]-pyrazol-1-yl}-acetic acid tert-butyl ester] | 0.244 µM |  |  |
| O=C(Nc1ccn(C[C@H](O)CO)n1)[C@H](CC1CCCC1)N1Cc2c(cccc2C(F)(F)F)C1=O [Example 6, (S)-3-Cyclopentyl-N-[1-((S)-2,3-dihydroxy-propyl)-1H-pyrazol-3-yl]-2-(1-oxo-4-trifluoromethyl-1,3-dihydro-isoindol-2-yl)-propionamide] | 0.119 µM | -48.3% |  |
| O=C(Nc1ccn(CCCO)n1)[C@H](CC1CCCC1)N1Cc2ccccc2C1=O [Example 12, (S)-3-Cyclopentyl-N-[1-(3-hydroxy-propyl)-1H-pyrazol-3-yl]-2-(1-oxo-1,3-dihydro-isoindol-2-yl)-propionamide] | 1.857 µM |  |  |
| COCCn1ccc(NC(=O)[C@H](CC2CCCC2)N2Cc3ccccc3C2=O)n1 [Example 9, (S)-3-Cyclopentyl-N-[1-(2-methoxy-ethyl)-1H-pyrazol-3-yl]-2-(1-oxo-1,3-dihydro-isoindol-2-yl)-propionamide] | 1.6 µM |  |  |
| COCCn1ccc(NC(=O)[C@H](CC2CCCC2)N2Cc3c(cccc3C(F)(F)F)C2=O)n1 [Example 13, (S)-3-Cyclopentyl-N-[1-(2-methoxy-ethyl)-1H-pyrazol-3-yl]-2-(1-oxo-4-trifluoromethyl-1,3-dihydro-isoindol-2-yl)-propionamide] | 0.328 µM |  | -45.2% |
| CC(C)OCCn1ccc(NC(=O)[C@H](CC2CCCC2)N2Cc3ccccc3C2=O)n1 [Example 11, (S)-3-Cyclopentyl-N-[1-(2-isopropoxy-ethyl)-1H-pyrazol-3-yl]-2-(1-oxo-1,3-dihydro-isoindol-2-yl)-propionamide] | 2.091 µM |  |  |
| COC(C)(C)Cn1ccc(NC(=O)[C@H](CC2CC2)N2Cc3ccccc3C2=O)n1 [Example 10, (S)-3-Cyclopropyl-N-[1-(2-methoxy-2-methyl-propyl)-1H-pyrazol-3-yl]-2-(1-oxo-1,3-dihydro-isoindol-2-yl)-propionamide] | 20.625 µM |  |  |
| COCCn1ccc(NC(=O)[C@H](CC2CCCCC2)N2Cc3ccccc3C2=O)n1 [Example 8, (S)-3-Cyclohexyl-N-[1-(2-methoxy-ethyl)-1H-pyrazol-3-yl]-2-(1-oxo-1,3-dihydro-isoindol-2-yl)-propionamide] | 3.526 µM |  |  |

Continued, in another order:

| SC1.5 (concentration of activator that produced a 50% increase in the activity of GK) [1] | Structure (SMILES) | change in vivo at 25 mg/kg (C57BL/6J mice) | change in vivo at 50 mg/kg (C57BL/6J mice; vs. control at 2 hours post 50 mg/kg oral dose) |
| --- | --- | --- | --- |
| 14.914 µM | CSCC[C@@H](C(=O)Nc1cnc([C@H](O)CO)cn1)N1Cc2c(cccc2C(F)(F)F)C1=O [Example 22, (S)—N-[5-((S)-1,2-Dihydroxy-ethyl)-pyrazin-2-yl]-4-methylsulfanyl-2-(1-oxo-4-trifluoromethyl-1,3-dihydro-isoindol-2-yl)-butyramide] |  |  |
| 0.062 µM | O=C(Nc1cnc(Br)cn1)[C@H](CC1CCCC1)N1Cc2c(cccc2C(F)(F)F)C1=O [Example 16, (S)—N-(5-Bromo-pyrazin-2-yl)-3-cyclopentyl-2-(1-oxo-4-trifluoromethyl-1,3-dihydro-isoindol-2-yl)-propionamide] |  |  |
| 0.457 µM | O=C(O)CCn1ccc(NC(=O)[C@H](CC2CCCC2)N2Cc3c(cccc3C(F)(F)F)C2=O)n1 [Example 20, 3-[3-[(S)-3-Cyclopentyl-2-(1-oxo-4-trifluoromethyl-1,3-dihydro-isoindol-2-yl)-propionylamino]-pyrazol-1-yl]-propionic acid] |  |  |
| 0.962 µM | COCCn1ccc(NC(=O)[C@H](CC2CCCCC2)N2Cc3c(F)cccc3C2=O)n1 [Example 18, (S)-3-Cyclohexyl-2-(4-fluoro-1-oxo-1,3-dihydro-isoindol-2-yl)-N-[1-(2-methoxy-ethyl)-1H-pyrazol-3-yl]-propionamide] | -25.4% |  |
| 1.422 µM | CC(C)C[C@@H](C(=O)Nc1cnccn1)N1Cc2c(cccc2C(F)(F)F)C1=O [Example 23, (S)-4-Methyl-2-(1-oxo-4-trifluoromethyl-1,3-dihydro-isoindol-2-yl)-pentanoic acid pyrazin-2-ylamide] |  |  |
| 0.334 µM | CC(C)(C)OC(=O)CCn1ccc(NC(=O)[C@H](CC2CCCC2)N2Cc3c(cccc3C(F)(F)F)C2=O)n1 [Example 19, 3-{3-[(S)-3-Cyclopentyl-2-(1-oxo-4-trifluoromethyl-1,3-dihydro-isoindol-2-yl)-propionylamino]-pyrazol-1-yl}-propionic acid tert-butyl ester] |  |  |
| 2.966 µM | CC(C)C[C@@H](C(=O)Nc1cnc([C@H](O)CO)cn1)N1Cc2c(cccc2C(F)(F)F)C1=O [Example 24, (S)-4-Methyl-2-(1-oxo-4-trifluoromethyl-1,3-dihydro-isoindol-2-yl)-pentanoic acid [5-((S)-1,2-dihydroxy-ethyl)-pyrazin-2-yl]-amide] |  |  |
